Laboratory results as given in ChEMBL document CHEMBL1201862, “PubChem BioAssay data set” (2004).
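Briefly, cells in 96-well plates were exposed to five compound concentrations for 48 h, and endpoints were estimated by linear interpolation. Abbreviation: GI50, concentration required for 50% inhibition of growth.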 Activity calls are given as the source filed them. No stated cut-off is given here; in the data, active = GI50 up to about 1.1 µM and inactive = higher.

How the values were obtained:
Test in all cases: growth of human tumour cells (NCI), 48 h
HCC 2998 = test system: HCC 2998
SF-539 = test system: SF-539
OVCAR-4 = test system: OVCAR-4
MDA-N = test system: MDA-N
HOP-62 = test system: HOP-62
KM12 = test system: KM12
A549 = test system: A549
Malme-3M = test system: Malme-3M
SN12C = test system: SN12C
T47D = test system: T47D
SF-295 = test system: SF-295
NCI-H460 = test system: NCI-H460
MCF7 = test system: MCF7
EKVX = test system: EKVX
TK-10 = test system: TK-10
Hs-578T = test system: Hs-578T
M14 = test system: M14
BT-549 = test system: BT-549
SW-620 = test system: SW-620
HL-60 = test system: HL-60
MDA-MB-231 = test system: MDA-MB-231
OVCAR-3 = test system: OVCAR-3
UACC-62 = test system: UACC-62
NCI-H226 = test system: NCI-H226
UACC-257 = test system: UACC-257
NCI/ADR-RES = test system: NCI/ADR-RES
SK-MEL-28 = test system: SK-MEL-28
HOP-92 = test system: HOP-92
U-251 = test system: U-251
MDA-MB-435 = test system: MDA-MB-435
ACHN = test system: ACHN
SF-268 = test system: SF-268
OVCAR-8 = test system: OVCAR-8
IGROV-1 = test system: IGROV-1
SK-OV-3 = test system: SK-OV-3
COLO 205 = test system: COLO 205
HT-29 = test system: HT-29
HCT-116 = test system: HCT-116
NCI-H522 = test system: NCI-H522
A498 = test system: A498
K562 = test system: K562
MOLT-4 = test system: MOLT-4
PC-3 = test system: PC-3
LOX IMVI = test system: LOX IMVI
SNB-19 = test system: SNB-19
HCT-15 = test system: HCT-15
786-0 = test system: 786-0
UO-31 = test system: UO-31
SK-MEL-5 = test system: SK-MEL-5
SK-MEL-2 = test system: SK-MEL-2
RPMI-8226 = test system: RPMI-8226
NCI-H23 = test system: NCI-H23
RXF 393 = test system: RXF 393
SNB-75 = test system: SNB-75
DU-145 = test system: DU-145
CAKI-1 = test system: CAKI-1
OVCAR-5 = test system: OVCAR-5
CCRF-CEM = test system: CCRF-CEM
SR = test system: SR

C(=N\Nc1nnc2c(n1)[nH]c1ccccc12)/c1cccnc1
GI50 (HCC 2998): > 100 µM (inactive) | GI50 (SF-539): > 100 µM (inactive) | GI50 (OVCAR-4): > 100 µM (inactive) | GI50 (MDA-N): > 100 µM (inactive) | GI50 (HOP-62): > 100 µM (inactive) | GI50 (KM12): 3.69 µM (inactive) | GI50 (A549): > 100 µM (inactive) | GI50 (Malme-3M): 57.8 µM (inactive) | GI50 (SN12C): > 100 µM (inactive) | GI50 (T47D): > 100 µM (inactive) | GI50 (SF-295): > 100 µM (inactive) | GI50 (NCI-H460): > 100 µM (inactive) | GI50 (MCF7): > 100 µM (inactive) | GI50 (EKVX): > 100 µM (inactive) | GI50 (TK-10): > 100 µM (inactive) | GI50 (Hs-578T): > 100 µM (inactive) | GI50 (M14): 5.07 µM (inactive) | GI50 (BT-549): > 100 µM (inactive) | GI50 (SW-620): > 100 µM (inactive) | GI50 (HL-60): > 100 µM (inactive) | GI50 (MDA-MB-231): > 100 µM (inactive) | GI50 (OVCAR-3): > 100 µM (inactive) | GI50 (UACC-62): > 100 µM (inactive) | GI50 (NCI-H226): > 100 µM (inactive) | GI50 (UACC-257): > 100 µM (inactive) | GI50 (NCI/ADR-RES): > 100 µM (inactive) | GI50 (SK-MEL-28): > 100 µM (inactive) | GI50 (HOP-92): > 100 µM (inactive) | GI50 (U-251): > 100 µM (inactive) | GI50 (MDA-MB-435): > 100 µM (inactive) | GI50 (ACHN): > 100 µM (inactive) | GI50 (SF-268): > 100 µM (inactive) | GI50 (OVCAR-8): > 100 µM (inactive) | GI50 (IGROV-1): > 100 µM (inactive) | GI50 (SK-OV-3): > 100 µM (inactive) | GI50 (COLO 205): > 100 µM (inactive) | GI50 (HT-29): > 100 µM (inactive) | GI50 (HCT-116): > 100 µM (inactive) | GI50 (NCI-H522): > 100 µM (inactive) | GI50 (A498): > 100 µM (inactive) | GI50 (K562): > 100 µM (inactive) | GI50 (MOLT-4): > 100 µM (inactive) | GI50 (PC-3): > 100 µM (inactive) | GI50 (LOX IMVI): > 100 µM (inactive) | GI50 (SNB-19): > 100 µM (inactive) | GI50 (HCT-15): > 100 µM | GI50 (786-0): > 100 µM (inactive) | GI50 (UO-31): > 100 µM (inactive) | GI50 (SK-MEL-5): > 100 µM (inactive) | GI50 (SK-MEL-2): > 100 µM (inactive) | GI50 (RPMI-8226): > 100 µM (inactive) | GI50 (NCI-H23): > 100 µM (inactive) | GI50 (RXF 393): > 100 µM (inactive) | GI50 (SNB-75): > 100 µM (inactive) | GI50 (DU-145): > 100 µM (inactive) | GI50 (CAKI-1): > 100 µM (inactive) | GI50 (OVCAR-5): > 100 µM (inactive)

O=C(c1ccccc1)c1ccc2[nH]c(-c3c(Cl)c(Cl)c(Cl)c(Cl)c3C(=O)N/N=C\C=C\c3ccccc3)nc2c1
GI50 (SF-539): 61 µM (inactive) | GI50 (OVCAR-4): 26.1 µM (inactive) | GI50 (MDA-N): 32.1 µM (inactive) | GI50 (CCRF-CEM): 12 µM (inactive) | GI50 (HOP-62): 54.1 µM (inactive) | GI50 (KM12): 61.4 µM (inactive) | GI50 (A549): 50.1 µM (inactive) | GI50 (Malme-3M): 57.3 µM (inactive) | GI50 (SN12C): 31.3 µM (inactive) | GI50 (T47D): 16.5 µM (inactive) | GI50 (SF-295): 38.9 µM (inactive) | GI50 (MCF7): 20.7 µM (inactive) | GI50 (EKVX): 40.7 µM (inactive) | GI50 (TK-10): 86.9 µM (inactive) | GI50 (Hs-578T): 52.7 µM (inactive) | GI50 (M14): 53.5 µM (inactive) | GI50 (BT-549): 47.1 µM (inactive) | GI50 (SW-620): 54.1 µM (inactive) | GI50 (HL-60): 37.8 µM (inactive) | GI50 (MDA-MB-231): 22.6 µM (inactive) | GI50 (OVCAR-3): 25.1 µM (inactive) | GI50 (NCI-H226): 42.8 µM (inactive) | GI50 (UACC-257): 83.9 µM (inactive) | GI50 (NCI/ADR-RES): > 100 µM (inactive) | GI50 (SK-MEL-28): 51.3 µM (inactive) | GI50 (HOP-92): 41.1 µM (inactive) | GI50 (U-251): 68.9 µM (inactive) | GI50 (MDA-MB-435): 30.1 µM (inactive) | GI50 (ACHN): 19.8 µM (inactive) | GI50 (SF-268): 38.6 µM (inactive) | GI50 (OVCAR-8): 60 µM (inactive) | GI50 (IGROV-1): 34.4 µM (inactive) | GI50 (SK-OV-3): > 100 µM (inactive) | GI50 (COLO 205): 30.5 µM (inactive) | GI50 (HT-29): 45 µM (inactive) | GI50 (HCT-116): 58.6 µM (inactive) | GI50 (NCI-H522): 26.9 µM (inactive) | GI50 (K562): 19.4 µM (inactive) | GI50 (MOLT-4): 17.7 µM (inactive) | GI50 (PC-3): 42.3 µM (inactive) | GI50 (LOX IMVI): 48.9 µM (inactive) | GI50 (SNB-19): 66.2 µM (inactive) | GI50 (HCT-15): 32.5 µM | GI50 (786-0): 35.8 µM (inactive) | GI50 (UO-31): 39.5 µM (inactive) | GI50 (SK-MEL-5): 26.9 µM (inactive) | GI50 (SK-MEL-2): 37.1 µM (inactive) | GI50 (RPMI-8226): 17.5 µM (inactive) | GI50 (NCI-H23): 59.3 µM (inactive) | GI50 (RXF 393): 21.8 µM (inactive) | GI50 (SNB-75): 59.4 µM (inactive) | GI50 (DU-145): 73.1 µM (inactive) | GI50 (CAKI-1): 77.4 µM (inactive) | GI50 (OVCAR-5): > 100 µM (inactive) | GI50 (SR): 23.3 µM (inactive)
